The values below come from patent US10143747B2, “Breast cancer therapeutics” (IMBA—INSTITUT FÜR MOLEKULARE BIOTECHNOLOGIE GMBH, priority 2010, dated 2018).

In one experiment the test system is NFκB pathway / CyclinD1. Nature of the experiment: NFκB pathway activation and CyclinD1 expression in mammary epithelial cells after MPA in vivo. Set-up: species or system mouse. The note with it: three day MPA treatment, control females. The text has this:
a, Activation of the NFκB pathway and CyclinD1 expression by MPA. Nulliparous RANK^Δmam and littermate control females were s.c. implanted with slow-release MPA pellets or treated with sham surgery. a, In situ immunostaining to detect phosphorylated (P) IκBα in mammary epithelial cells of RANK^Δmam and littermate control females after 3 d MPA treatment. b, Western blot analysis of CyclinD1 and RANKL in isolated mammary epithelial cells from RANK^Δmam and littermate control females after 3 d MPA treatment. Recombinant, murine sRANKL protein is shown for molecular size comparison. β-actin is shown as a loading control.
The human epithelial breast tumor cell line SKBR3 and primary non-transformed mouse mammary epithelial cells were left untreated or stimulated with recombinant murine RANKL^ref. 9. Adenocarcinomas were isolated from control and mutant mice and total protein lysates prepared. Western blotting was carried out using standard protocols. Briefly, blots were blocked with 5% BSA in 1×TBS 0.1% Tween-20 (TBST) for 1 hour and incubated with primary antibody overnight at 4° C. (diluted in TBST according to the manufactures protocol). […]

For a further experiment, the system named is mammary epithelial cells. Nature of the experiment: γ-irradiation induced mammary epithelial cell apoptosis in vivo (active Caspase 3). The note with it: MPA pellet, 5 Gray. Set-up: species or system mouse. The protocol:
(§1) a, Western blotting for phosphorylated (P) IKKα, total IKKα, phosphorylated (P) p65 NFκB, total p65 NFκB, phosphorylated (P) IκBα, and total IκBα in isolated primary mouse mammary gland epithelial cells (MECs) in response to RANKL stimulation (1 μg/ml). β-actin is shown as loading control. b, Western blotting for IKKα, IKKβ, IKKγ, phosphorylated (P) p65 NFκB, total p65 NFκB, phosphorylated (P) IκBα, and total IκBα in pooled late stage mammary adenocarconimas (n=4 for each lane) that developed in control, RANK^Δmam and IKKΔ^Δmam females. β-actin is shown as loading control c, Expression of RANK, CyclinD1, and p21 mRNA in late stage mammary adenocacinomas that developed in control, RANK^Δmam, and IKKα^Δmam females. Expression was determined by qRT-PCR. […] Apoptosis was detected by immunostaining for active Caspase 3. f, Apoptotic nuclei of epithelial cells (arrows) are shown for representative mammary gland sections. Magnifications×40. g, Quantification of mammary epithelial apoptosis. A minimum of 5000 nuclei was counted for each mouse. […]
For measurement of cell cycle arrest and apoptosis primary mouse mammary epithelial cells and SKBR3 human breast cancer cells were seeded at a cell-density of 100000 cells/well in a 6-well plate and allowed to grow for 24 hours. […] Cell cycle arrest and numbers of dead cells were determined using propidium iodine staining. […]

Experiment [1] relates to primary mouse mammary gland epithelial cells (MECs). In words: Western blotting of RANKL-stimulated primary mouse mammary gland epithelial cells. The note with it: RANKL 1 μg/ml. Format: cell-based. The protocol:
as §1, with “qRT-PCR. Data are mean values+/−sem. n=4 per group. d, Soft-Agar Colony Formation Assay. Growth of human SKBR3 breast cancer cells in soft agar in response to stimulation with RANKL (1 μg/ml) or EGF (100 ng/ml). Anchorage-independent, macroscopic colonies formed after 18 days in culture with RANKL, which was prevented by the decoy receptor OPG (1 μg/ml).” for “qRT-PCR.”
(Immunoblotting shows a protein as a band on a membrane.)

With `CC(=O)O[C@]1(C(C)=O)CC[C@H]2[C@@H]3C[C@H](C)C4=CC(=O)CC[C@]4(C)[C@H]3CC[C@@]21C` [MPA, medroxyprogesterone acetate], in the experiment on NFκB pathway / CyclinD1, the “CyclinD1 protein expression in mammary epithelial cells” value is “induction of CyclinD1 protein expression” and the “nuclear phosphorylated IκBα in mammary epithelial cells” value is on record as “nuclear accumulation of phosphorylated IκBα”. For the same molecule, the “protective effect of MPA on γ-irradiation-induced cell death” value in the experiment with mammary epithelial cells (RANKΔmam females) is recorded as “abrogated the protective effects of MPA”. Besides, the “γ-irradiation-induced apoptosis of mammary epithelial cells in vivo” value in the experiment with mammary epithelial cells (control females) is given as “protected from γ-irradiation-induced apoptosis”.

B1: RANKL: recombinant RANKL protein, ligand of RANK, used as stimulus (1 μg/ml or 1 μg i.p.) (protein, UniProt O35235 139-316, looked up)
Tumor necrosis factor ligand …: FSGAPAMMEGSWLDVAQRGKPEAQPFAHLTINAASIPSGSHKVTLSSWYHDRGWAKISNMTLSNGKLRVNQDGFYYLYANICFRHHETSGSVPTDYLQLMVYVVKTSIKIPSSHNLMKGGSTKNWSGNSEFHFYSINVGGFFKLRAGEEISIQVSNPSLLDPDQDATYFGAFKVQDID
Consider B1, for which, in experiment [1], the “p65 NFκB and IκBα phosphorylation” value is “resulted in p65 NFκB and IκBα phosphorylation”; the “phosphorylation of p38-MAPKs and ERK” value is “triggered phosphorylation of p38-MAPKs and ERK”.
